Drawing on US20070027145A1, “Quinazoline derivatives as inhibitors of vegf receptor tyrosine kinases” (priority 2003, published 2007), this text covers IC50 for one compound.

The test system of assay [1] is EGF-stimulated proliferation of human umbilical vein endothelial cells (HUVEC). The assay can be described thus: In vitro HUVEC proliferation assay (b), EGF-stimulated. Particulars: EGF 3 ng/ml, read-out: IC50 in the HUVEC assay (b) with respect to EGF. Type of assay: cell-based. On the procedure:
(§1) This assay determines the ability of a test compound to inhibit the growth factor-stimulated proliferation of human umbilical vein endothelial cells (HUVEC).
(§2) HUVEC cells were isolated in MCDB 131 (Gibco BRL)+7.5% v/v fetal calf serum (PCS) and were plated out (at passage 2 to 8), in MCDB 131+2% v/v FCS+3 μg/ml heparin+1 µg/ml hydrocortisone, at a concentration of 1000 cells/well in 96 well plates. After a minimum of 4 hours they were dosed with the appropriate growth factor (i.e. VEGF 3 ng/ml, EGF 3 ng/ml or b-FGF 0.3 ng/ml) and compound. The cultures were then incubated for 4 days at 37° C. with 7.5% carbon dioxide. On day 4 the cultures were pulsed with 1 μCi/well of tritiated-thymidine (Amersham product TRA 61) and incubated for 4 hours. The cells were harvested using a 96-well plate harvester (Tomtek) and then assayed for incorporation of tritium with a Beta plate counter. Incorporation of radioactivity into cells, expressed as cpm, was used to measure inhibition of growth factor-stimulated cell proliferation by compounds.

In assay [2] the test system is VEGF-stimulated proliferation of human umbilical vein endothelial cells (HUVEC). As to the kind of experiment: In vitro HUVEC proliferation assay (b), VEGF-stimulated. Format: cell-based. Particulars: VEGF 3 ng/ml, read-out: IC50 in the HUVEC assay (b) with respect to VEGF. On the procedure: as §1, §2
The next assay addresses T1, EGFR (Homo sapiens, UniProt P00533).
T1 construct: made in house; host or cells: insect cells (e.g. Spodoptera frugiperda Sf21), recombinant baculovirus
The assay can be described thus: In vitro receptor tyrosine kinase inhibition test (a), EGFR. Format: biochemical. Particulars: read-out: IC50 in the enzyme assay (a) against EGFR. From the text:
(§3) This assay determines the ability of a test compound to inhibit tyrosine kinase activity. DNA encoding VEGF or epidermal growth factor (EGF) receptor cytoplasmic domains may be obtained by total gene synthesis (Edwards M, International Biotechnology Lab 5(3), 19-25, 1987) or by cloning. These may then be expressed in a suitable expression system to obtain polypeptide with tyrosine kinase activity. […] In the case of the VEGF receptor Flt (Genbank accession number X51602), a 1.7 kb DNA fragment encoding most of the cytoplasmic domain, commencing with methionine 783 and including the termination codon, described by Shibuya et al (Oncogene, 1990, 5: 519-524), was isolated from cDNA and cloned into a baculoviris transplacement vector (for example pAcYM1 (see The Baculovirus Expression System: A Laboratory Guide, L. A. King and R. D. Possee, Chapman and Hall, 1992) or pAc360 or pBlueBacHis (available from Invitrogen Corporation)). This recombinant construct was co-transfected into insect cells (for example Spodoptera frugiperda 21(Sf21)) with viral DNA (eg Pharmingen BaculoGold) to prepare recombinant baculovirus. […]

The target in assay [3] is T2, human ether-a-go-go-related-gene (hERG)-encoded potassium channel (Homo sapiens, UniProt Q12809).
T2 construct: expressed in transfected cells; host or cells: Human embryonic kidney (HEK) cells under G418 selection
T2 sequence (Q12809 whole entry): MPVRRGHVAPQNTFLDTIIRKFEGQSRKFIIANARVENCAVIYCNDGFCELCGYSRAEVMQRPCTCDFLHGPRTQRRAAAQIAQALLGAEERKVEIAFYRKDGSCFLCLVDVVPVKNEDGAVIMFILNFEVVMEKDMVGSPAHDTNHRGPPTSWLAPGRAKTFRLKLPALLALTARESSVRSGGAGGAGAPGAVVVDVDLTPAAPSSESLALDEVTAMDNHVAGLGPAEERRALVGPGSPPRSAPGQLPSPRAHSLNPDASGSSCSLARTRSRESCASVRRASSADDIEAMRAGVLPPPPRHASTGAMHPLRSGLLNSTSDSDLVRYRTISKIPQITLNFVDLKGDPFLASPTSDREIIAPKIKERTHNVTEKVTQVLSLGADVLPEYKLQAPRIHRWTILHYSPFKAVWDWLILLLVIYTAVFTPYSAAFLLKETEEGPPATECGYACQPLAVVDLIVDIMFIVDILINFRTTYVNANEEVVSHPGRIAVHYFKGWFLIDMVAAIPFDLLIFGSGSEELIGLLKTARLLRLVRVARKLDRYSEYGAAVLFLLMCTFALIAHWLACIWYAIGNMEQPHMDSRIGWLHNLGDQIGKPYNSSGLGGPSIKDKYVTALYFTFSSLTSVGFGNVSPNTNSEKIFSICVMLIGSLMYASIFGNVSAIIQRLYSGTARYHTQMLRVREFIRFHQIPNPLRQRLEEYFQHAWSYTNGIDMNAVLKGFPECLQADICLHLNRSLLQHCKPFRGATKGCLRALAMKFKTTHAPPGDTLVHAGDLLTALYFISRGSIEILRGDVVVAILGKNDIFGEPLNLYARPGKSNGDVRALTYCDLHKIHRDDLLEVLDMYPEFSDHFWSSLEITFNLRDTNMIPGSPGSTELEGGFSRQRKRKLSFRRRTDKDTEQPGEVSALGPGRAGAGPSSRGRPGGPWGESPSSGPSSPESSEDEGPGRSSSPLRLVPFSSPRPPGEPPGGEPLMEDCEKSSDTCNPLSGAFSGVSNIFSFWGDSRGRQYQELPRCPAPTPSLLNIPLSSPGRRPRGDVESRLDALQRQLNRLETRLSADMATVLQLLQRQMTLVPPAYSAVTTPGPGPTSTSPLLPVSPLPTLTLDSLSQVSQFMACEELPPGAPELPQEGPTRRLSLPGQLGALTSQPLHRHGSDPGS
As to the kind of experiment: hERG-encoded potassium channel inhibition test (d). Type of assay: cell-based. Particulars: HEK cells, whole cell patch clamp, tail current. On the procedure: This assay determines the ability of a test compound to inhibit the tail current flowing through the human ether-a-go-go-related-gene (hERG)-encoded potassium channel.
Human embryonic kidney (HEK) cells expressing the hERG-encoded channel were grown in Miniium Essential Medium Eagle (EMEM; Sigma-Aldrich catalogue number M2279), supplemented with 10% Foetal Calf Serum (Labtech Internation; product number 4-101-500), 10% M1 serum-free supplement (Egg Technologies; product number 70916) and 0.4 mg/ml Geneticin G418 (Sigma-Aldrich; catalogue number G7034). […]
For each cell recorded, a glass coverslp containing the cells were placed at the bottom of a Perspex chamber containging bath solution (see below) at ambient temperature (˜20° C.). […]
The cell was recorded in the whole cell configutation of the patch clamp technique. […]
The amplitude of the hERG-encoded potassium channel tail current following the step from +40 mV to −50 mV was recorded on-line by Clampex software (Axon Instruments). […]
The effect of each concentration of test compound was quantified by expressing the tail current amplitude in the presence of a given concentration of test compound as a percentage of that in the presence of vehicle.
Test compound potency (IC50) was determined by fitting the percentage inhibition values making up the concentration-effect to a four parameter Hill equation using a standard data-fitting package.

The next assay has as its target T3, Flt-1 (Homo sapiens, UniProt P17948).
T3 construct: encoding most of the cytoplasmic domain, commencing with methionine 783 and including the termination codon; made in house; host or cells: Sf21 insect cells, recombinant baculovirus
T3 sequence (P17948 781-1338 limits assumed): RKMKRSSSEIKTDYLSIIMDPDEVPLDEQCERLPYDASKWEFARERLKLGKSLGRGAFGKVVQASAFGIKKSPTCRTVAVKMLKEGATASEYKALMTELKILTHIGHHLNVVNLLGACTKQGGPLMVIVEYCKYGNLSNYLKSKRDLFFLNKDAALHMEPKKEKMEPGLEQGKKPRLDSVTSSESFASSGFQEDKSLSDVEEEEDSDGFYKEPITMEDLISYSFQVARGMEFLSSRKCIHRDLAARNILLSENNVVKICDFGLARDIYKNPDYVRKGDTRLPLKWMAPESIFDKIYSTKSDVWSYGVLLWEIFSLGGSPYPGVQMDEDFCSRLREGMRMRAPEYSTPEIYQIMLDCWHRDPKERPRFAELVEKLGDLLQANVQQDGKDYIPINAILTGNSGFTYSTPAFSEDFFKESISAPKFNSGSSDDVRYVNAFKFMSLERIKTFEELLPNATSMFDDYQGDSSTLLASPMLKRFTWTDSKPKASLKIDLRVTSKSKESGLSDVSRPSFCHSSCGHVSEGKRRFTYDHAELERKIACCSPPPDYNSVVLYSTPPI
The assay can be described thus: In vitro receptor tyrosine kinase inhibition test (a), Flt-1. Type of assay: biochemical. The conditions noted are these: read-out: IC50 in the enzyme assay (a) against Flt-1.
Excerpt: as §3

The target in the next assay is T4, KDR (Homo sapiens, UniProt P35968).
T4 construct: made in house; host or cells: insect cells (e.g. Spodoptera frugiperda Sf21), recombinant baculovirus
T4 sequence (P35968 786-1356 limits assumed): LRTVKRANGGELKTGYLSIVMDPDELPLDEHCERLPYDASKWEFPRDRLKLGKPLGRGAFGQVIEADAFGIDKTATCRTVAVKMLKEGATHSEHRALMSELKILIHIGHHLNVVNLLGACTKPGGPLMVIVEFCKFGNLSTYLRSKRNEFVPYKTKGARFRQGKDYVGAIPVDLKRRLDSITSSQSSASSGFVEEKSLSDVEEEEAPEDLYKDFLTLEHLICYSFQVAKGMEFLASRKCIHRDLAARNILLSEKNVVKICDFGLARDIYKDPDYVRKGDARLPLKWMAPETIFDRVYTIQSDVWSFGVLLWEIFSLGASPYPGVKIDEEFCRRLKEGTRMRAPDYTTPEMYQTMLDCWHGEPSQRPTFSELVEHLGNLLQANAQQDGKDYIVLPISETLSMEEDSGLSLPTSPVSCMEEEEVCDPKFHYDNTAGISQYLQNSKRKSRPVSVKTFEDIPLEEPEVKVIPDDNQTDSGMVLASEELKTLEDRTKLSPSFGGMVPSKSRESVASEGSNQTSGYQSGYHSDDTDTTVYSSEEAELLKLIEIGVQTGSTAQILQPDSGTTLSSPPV
As to the kind of experiment: In vitro receptor tyrosine kinase inhibition test (a), KDR. Format: biochemical. The conditions noted are these: read-out: IC50 in the enzyme assay (a) against KDR.
Excerpt: as §3

T1 sequence (P00533 669-1210 limits assumed): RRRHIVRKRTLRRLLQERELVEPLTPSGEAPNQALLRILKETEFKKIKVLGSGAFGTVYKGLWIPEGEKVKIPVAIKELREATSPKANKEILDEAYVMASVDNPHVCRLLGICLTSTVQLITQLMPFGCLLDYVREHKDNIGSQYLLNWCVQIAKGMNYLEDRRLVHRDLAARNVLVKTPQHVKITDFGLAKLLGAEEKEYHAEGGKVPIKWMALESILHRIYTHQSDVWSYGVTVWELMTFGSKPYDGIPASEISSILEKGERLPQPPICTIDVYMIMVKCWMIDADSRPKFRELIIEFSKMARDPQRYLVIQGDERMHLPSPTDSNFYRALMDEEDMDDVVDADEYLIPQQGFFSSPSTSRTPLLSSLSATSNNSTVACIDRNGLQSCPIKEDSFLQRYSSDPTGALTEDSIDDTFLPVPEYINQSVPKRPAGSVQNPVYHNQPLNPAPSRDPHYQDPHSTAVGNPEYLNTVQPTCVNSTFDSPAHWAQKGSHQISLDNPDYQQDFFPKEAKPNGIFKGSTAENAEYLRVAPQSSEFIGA

Usually IC50 stands for the concentration needed to halve the response being measured. For the compound `COc1cc2c(Nc3ccc(Br)cc3F)ncnc2cc1OCC1CCN(C(=O)CN(C)C)CC1` [Example 1, 4-(4-bromo-2-fluoroanilino)-7-({1-[(N,N-dimethylamino)acetyl]piperidin-4-yl}methoxy)-6-methoxyquinazoline], the IC50 in assay [1] worked out at 100 nM; in assay [2] it was 11.4 nM; at EGFR, 72 nM; in assay [3] it was 1500 nM; at Flt-1, 490 nM; at KDR, 29 nM.
